Assay results as given in patent US20080076827A1, “Treatment of Inflammatory Bowel Disease” (priority 2004, published 2008).

What was measured:
TNFα = assay: LPS-induced TNF alpha release in mice; assay type: in vivo, Balb C ByJ mice; settings: oral route, 30 min before 1 mg/kg i.p. LPS; serum 2 hours after LPS; ELISA
Method: 7 week-old Balb C ByJ mice (24-28 g) were administered, either by i.p. (5 ml/kg) or oral (10 ml/kg) administration, with vehicle or test article. 30 minutes later these animals were challenged with an intraperitoneal injection of 1 mg/kg LPS. 2 hours after LPS challenge, blood samples were collected under light isoflurane anaesthesia into normal tubes by retro-orbital puncture. Samples were allowed to clot at room temperature and then spun at 6000 g for 3 min at 4° C. Serum was stored at −20° C. until use. Serum TNFα and IL-10 levels were analysed in duplicate by ELISA technique.

[1] = system: dextran sulphate-induced colonic inflammation; assay: Dextran sulphate-induced IBD model; assay type: in vivo, BDF1 male mice; settings: rectal route twice a day for 5 days
Method: 8-10 week-old BDF1 male mice (˜30 g) were housed in normal conditions. At the start of the study, normal water was exchanged for a 2.5% dextran sulphate solution to induce colonic inflammation. Concurrently actarit and the positive control budesonide were administered rectally twice a day for 5 days. On day 6 the animals were sacrificed and the large intestine was removed. The lower two-thirds were assessed for histological severity (scoring system; 1 mild to 4 severe).

## CC(=O)Nc1ccc(CC(=O)O)cc1 [actarit, 4-(acetylamino)benzeneacetic acid]
TNFα
  inhibition of serum TNFalpha levels after intraperitoneal LPS administration: dose-dependant inihibition of TNFalpha levels
[1]; 2.5% dextran sulphate in drinking water, large intestine assessed day 6
  pathological and histological lesions: can ameliorate pathological and histological lesions
[1]; 2.5% dextran sulphate, compared with 0.1 mg/kg rectal budesonide
  gross histological scores (scoring system; 1 mild to 4 severe): reduced gross histological scores induced by dextran sulphate in the drinking water of BDF1 mice, over and above the effect seen for 0.1 mg/kg rectal budesonide
